Experimental data from patent publication US20030104507A1, “Method for detection of ATP” (priority 2001, published 2003).

Columns and labels:
[1] = target: native firefly luciferase (Photinus pyralis, UniProt P08659); settings: cited from earlier work
[2] = system: ATPase activity endogenous to L929 cell lysate; test: Detergent inhibition of ATPase endogenous to L929 cell lysate (ATP remaining by luciferase luminescence, 22° C.); format: biochemical; design: key to Relative ATPase Activity, slope det/slope lysate: slope with detergent / slope without; ≥1.0 = 100% activity, 0.5 = 50%
In short: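 L929 lysate (1.5×10^5 cells/ml, four freeze–thaw cycles) held with detergent at final 1.0, 0.5, 0.1 or 0.05% at 22° C; remaining ATP read over time with luciferase-luciferin reagent (100 μM luciferin, 10 mM MgSO4, pH 7.5). Relative ATPase activity = slope of log % ATP remaining vs time with detergent ÷ slope for lysate-only control.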

[3] = Example 2, 0.02% detergent, 5 min
[4] = Example 2, 0.02% detergent, 75 min
[5] = Example 2, 0.02% detergent, 169 min
[6] = Example 2, 0.02% detergent, 222 min
[7] = Example 2, 0.02% detergent, 260 min

Sequence of native firefly luciferase (P08659 whole entry): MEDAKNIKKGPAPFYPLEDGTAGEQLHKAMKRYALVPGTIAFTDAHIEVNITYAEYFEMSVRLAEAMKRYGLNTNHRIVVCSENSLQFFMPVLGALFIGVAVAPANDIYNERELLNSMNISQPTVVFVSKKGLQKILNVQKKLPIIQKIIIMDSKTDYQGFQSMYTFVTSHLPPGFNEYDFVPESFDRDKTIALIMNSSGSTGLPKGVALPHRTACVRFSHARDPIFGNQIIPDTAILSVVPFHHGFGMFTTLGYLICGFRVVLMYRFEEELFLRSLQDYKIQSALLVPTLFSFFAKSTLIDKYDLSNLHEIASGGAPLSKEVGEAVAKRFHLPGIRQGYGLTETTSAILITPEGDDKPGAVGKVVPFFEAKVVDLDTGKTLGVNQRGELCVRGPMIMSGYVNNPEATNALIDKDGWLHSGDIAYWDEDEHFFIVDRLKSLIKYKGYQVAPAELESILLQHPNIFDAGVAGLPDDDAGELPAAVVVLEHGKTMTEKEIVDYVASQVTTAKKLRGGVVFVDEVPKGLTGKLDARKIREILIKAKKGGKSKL

CCCCCCCCCCCCCCCC[N+](C)(C)C.[Br-] [CTAB, Cetyltrimethylammonium bromide]
effect on native firefly luciferase [1]: inactivated
Relative ATPase Activity, slope det/slope lysate ([2]; 0.02 percent detergent): 0.718
Slope (log percent ATP remaining vs time in minutes) ([2]; 0.02 percent detergent): −0.0046
Average Relative Light Unit Values ([2]; 0.05% detergent, 5 min): 6525.51 rlu
Percent ATP Remaining ([2]; 0.05% detergent, 5 min): 100%
Average Relative Light Unit Values ([2]; 0.05% detergent, 75 min): 4029.32 rlu
Percent ATP Remaining ([2]; 0.05% detergent, 75 min): 61.7%
Average Relative Light Unit Values ([2]; 0.05% detergent, 169 min): 2093.80 rlu
Percent ATP Remaining ([2]; 0.05% detergent, 169 min): 32.1%
Average Relative Light Unit Values ([2]; 0.05% detergent, 222 min): 1437.67 rlu
Percent ATP Remaining ([2]; 0.05% detergent, 222 min): 22.0%
Average Relative Light Unit Values ([2]; 0.05% detergent, 260 min): 1002.72 rlu
Percent ATP Remaining ([2]; 0.05% detergent, 260 min): 15.4%
Relative ATPase Activity, slope det/slope lysate ([2]; 0.05 percent detergent): 0.561
Slope (log percent ATP remaining vs time in minutes) ([2]; 0.05 percent detergent): −0.0031
Average Relative Light Unit Values ([2]; 0.1% detergent, 5 min): 5104.82 rlu
Percent ATP Remaining ([2]; 0.1% detergent, 5 min): 100%
Average Relative Light Unit Values ([2]; 0.1% detergent, 75 min): 3607.65 rlu
Percent ATP Remaining ([2]; 0.1% detergent, 75 min): 70.7%
Average Relative Light Unit Values ([2]; 0.1% detergent, 169 min): 1889.29 rlu
Percent ATP Remaining ([2]; 0.1% detergent, 169 min): 37.0%
Average Relative Light Unit Values ([2]; 0.1% detergent, 222 min): 1248.51 rlu
Percent ATP Remaining ([2]; 0.1% detergent, 222 min): 24.5%
Relative ATPase Activity, slope det/slope lysate ([2]; 0.10 percent detergent): 0.507
Slope (log percent ATP remaining vs time in minutes) ([2]; 0.10 percent detergent): −0.0028
Average Relative Light Unit Values ([2]; 0.5% detergent, 5 min): 0.34 rlu
Average Relative Light Unit Values ([2]; 0.5% detergent, 75 min): 0.28 rlu
Average Relative Light Unit Values ([2]; 0.5% detergent, 169 min): 0.23 rlu
Average Relative Light Unit Values ([2]; 0.5% detergent, 222 min): 0.27 rlu
Average Relative Light Unit Values ([2]; 0.5% detergent, 260 min): 0.18 rlu
Average Relative Light Unit Values ([2]; 1.0% detergent, 5 min): 0.09 rlu
Average Relative Light Unit Values ([2]; 1.0% detergent, 75 min): 0.08 rlu
Average Relative Light Unit Values ([2]; 1.0% detergent, 169 min): 0.07 rlu
Average Relative Light Unit Values ([2]; 1.0% detergent, 222 min): 0.06 rlu
Average Relative Light Unit Values ([2]; 1.0% detergent, 260 min): 0.07 rlu
times more ATP present in the sample after four hours when the detergent was present than when it was absent ([2]; CTAB 0.05%): about four
Percent ATP Remaining [2, 3]: 100.00%
Percent ATP Remaining [2, 4]: 43.22%
Percent ATP Remaining [2, 5]: 15.49%
Percent ATP Remaining [2, 6]: 9.73%
Percent ATP Remaining [2, 7]: 6.92%

CCCCCCCCCCCC[N+](C)(C)Cc1ccccc1.[Br-] [BDDABr, Benzyldimethyldodecylammonium bromide]
Relative ATPase Activity, slope det/slope lysate ([2]; 0.02 percent detergent): 0.623
Slope (log percent ATP remaining vs time in minutes) ([2]; 0.02 percent detergent): −0.0039
Average Relative Light Unit Values ([2]; 0.05% detergent, 5 min): 7077.46 rlu
Percent ATP Remaining ([2]; 0.05% detergent, 5 min): 100%
Average Relative Light Unit Values ([2]; 0.05% detergent, 75 min): 4539.97 rlu
Percent ATP Remaining ([2]; 0.05% detergent, 75 min): 64.1%
Average Relative Light Unit Values ([2]; 0.05% detergent, 169 min): 2465.57 rlu
Percent ATP Remaining ([2]; 0.05% detergent, 169 min): 34.8%
Average Relative Light Unit Values ([2]; 0.05% detergent, 222 min): 1680.16 rlu
Percent ATP Remaining ([2]; 0.05% detergent, 222 min): 23.7%
Average Relative Light Unit Values ([2]; 0.05% detergent, 260 min): 1233.82 rlu
Percent ATP Remaining ([2]; 0.05% detergent, 260 min): 17.4%
Relative ATPase Activity, slope det/slope lysate ([2]; 0.05 percent detergent): 0.528
Slope (log percent ATP remaining vs time in minutes) ([2]; 0.05 percent detergent): −0.0030
Average Relative Light Unit Values ([2]; 0.1% detergent, 5 min): 7069.08 rlu
Percent ATP Remaining ([2]; 0.1% detergent, 5 min): 100%
Average Relative Light Unit Values ([2]; 0.1% detergent, 75 min): 5136.92 rlu
Percent ATP Remaining ([2]; 0.1% detergent, 75 min): 72.7%
Average Relative Light Unit Values ([2]; 0.1% detergent, 169 min): 3260.59 rlu
Percent ATP Remaining ([2]; 0.1% detergent, 169 min): 46.1%
Average Relative Light Unit Values ([2]; 0.1% detergent, 222 min): 2366.49 rlu
Percent ATP Remaining ([2]; 0.1% detergent, 222 min): 33.5%
Average Relative Light Unit Values ([2]; 0.1% detergent, 260 min): 1767.58 rlu
Percent ATP Remaining ([2]; 0.1% detergent, 260 min): 25.0%
Relative ATPase Activity, slope det/slope lysate ([2]; 0.10 percent detergent): 0.414
Slope (log percent ATP remaining vs time in minutes) ([2]; 0.10 percent detergent): −0.0023
Average Relative Light Unit Values ([2]; 0.5% detergent, 5 min): 122.47 rlu
Percent ATP Remaining ([2]; 0.5% detergent, 5 min): 100%
Average Relative Light Unit Values ([2]; 0.5% detergent, 75 min): 107.39 rlu
Percent ATP Remaining ([2]; 0.5% detergent, 75 min): 87.7%
Average Relative Light Unit Values ([2]; 0.5% detergent, 169 min): 93.92 rlu
Percent ATP Remaining ([2]; 0.5% detergent, 169 min): 76.2%
Average Relative Light Unit Values ([2]; 0.5% detergent, 222 min): 96.68 rlu
Percent ATP Remaining ([2]; 0.5% detergent, 222 min): 78.9%
Average Relative Light Unit Values ([2]; 0.5% detergent, 260 min): 101.11 rlu
Percent ATP Remaining ([2]; 0.5% detergent, 260 min): 82.6%
Relative ATPase Activity, slope det/slope lysate ([2]; 0.50 percent detergent): 0.064
Slope (log percent ATP remaining vs time in minutes) ([2]; 0.50 percent detergent): −0.0004
Average Relative Light Unit Values ([2]; 1.0% detergent, 5 min): 0.49 rlu
Average Relative Light Unit Values ([2]; 1.0% detergent, 75 min): 0.51 rlu
Average Relative Light Unit Values ([2]; 1.0% detergent, 169 min): 0.44 rlu
Average Relative Light Unit Values ([2]; 1.0% detergent, 222 min): 0.42 rlu
Average Relative Light Unit Values ([2]; 1.0% detergent, 260 min): 0.43 rlu
Average Relative Light Unit Values [2, 3]: 6215.32 rlu
Percent ATP Remaining [2, 3]: 100.00%
Average Relative Light Unit Values [2, 4]: 2686.49 rlu
Percent ATP Remaining [2, 4]: 48.53%
Average Relative Light Unit Values [2, 5]: 962.85 rlu
Percent ATP Remaining [2, 5]: 21.51%
Average Relative Light Unit Values [2, 6]: 604.47 rlu
Percent ATP Remaining [2, 6]: 13.18%
Average Relative Light Unit Values [2, 7]: 429.86 rlu
Percent ATP Remaining [2, 7]: 9.74%

C[C@H](CCC(=O)[O-])[C@H]1CC[C@H]2[C@@H]3CC[C@@H]4C[C@H](O)CC[C@]4(C)[C@H]3C[C@H](O)[C@]12C.[Na+] [Deoxycholate, sodium deoxycholate]
Relative ATPase Activity, slope det/slope lysate ([2]; 0.02 percent detergent): 1.004
Slope (log percent ATP remaining vs time in minutes) ([2]; 0.02 percent detergent): −0.0064
Average Relative Light Unit Values ([2]; 0.05% detergent, 5 min): 5810.85 rlu
Percent ATP Remaining ([2]; 0.05% detergent, 5 min): 100%
Average Relative Light Unit Values ([2]; 0.05% detergent, 75 min): 1729.95 rlu
Percent ATP Remaining ([2]; 0.05% detergent, 75 min): 29.8%
Average Relative Light Unit Values ([2]; 0.05% detergent, 169 min): 738.1 rlu
Percent ATP Remaining ([2]; 0.05% detergent, 169 min): 12.7%
Average Relative Light Unit Values ([2]; 0.05% detergent, 222 min): 375.74 rlu
Percent ATP Remaining ([2]; 0.05% detergent, 222 min): 6.5%
Average Relative Light Unit Values ([2]; 0.05% detergent, 260 min): 188.59 rlu
Percent ATP Remaining ([2]; 0.05% detergent, 260 min): 3.2%
Relative ATPase Activity, slope det/slope lysate ([2]; 0.05 percent detergent): 0.984
Slope (log percent ATP remaining vs time in minutes) ([2]; 0.05 percent detergent): −0.0055
Average Relative Light Unit Values ([2]; 0.1% detergent, 5 min): 6422.34 rlu
Percent ATP Remaining ([2]; 0.1% detergent, 5 min): 100%
Average Relative Light Unit Values ([2]; 0.1% detergent, 75 min): 3730.44 rlu
Percent ATP Remaining ([2]; 0.1% detergent, 75 min): 57.9%
Average Relative Light Unit Values ([2]; 0.1% detergent, 169 min): 1627.81 rlu
Percent ATP Remaining ([2]; 0.1% detergent, 169 min): 25.3%
Average Relative Light Unit Values ([2]; 0.1% detergent, 222 min): 1028.42 rlu
Percent ATP Remaining ([2]; 0.1% detergent, 222 min): 16.0%
Average Relative Light Unit Values ([2]; 0.1% detergent, 260 min): 669.31 rlu
Percent ATP Remaining ([2]; 0.1% detergent, 260 min): 10.4%
Relative ATPase Activity, slope det/slope lysate ([2]; 0.10 percent detergent): 0.684
Slope (log percent ATP remaining vs time in minutes) ([2]; 0.10 percent detergent): −0.0038
Average Relative Light Unit Values ([2]; 0.5% detergent, 5 min): 3189.56 rlu
Percent ATP Remaining ([2]; 0.5% detergent, 5 min): 100%
Average Relative Light Unit Values ([2]; 0.5% detergent, 75 min): 2715.45 rlu
Percent ATP Remaining ([2]; 0.5% detergent, 75 min): 85.1%
Average Relative Light Unit Values ([2]; 0.5% detergent, 169 min): 2268.77 rlu
Percent ATP Remaining ([2]; 0.5% detergent, 169 min): 71.1%
Average Relative Light Unit Values ([2]; 0.5% detergent, 222 min): 2105.38 rlu
Percent ATP Remaining ([2]; 0.5% detergent, 222 min): 66.0%
Average Relative Light Unit Values ([2]; 0.5% detergent, 260 min): 1845.36 rlu
Percent ATP Remaining ([2]; 0.5% detergent, 260 min): 57.9%
Relative ATPase Activity, slope det/slope lysate ([2]; 0.50 percent detergent): 0.158
Slope (log percent ATP remaining vs time in minutes) ([2]; 0.50 percent detergent): −0.0009
Average Relative Light Unit Values ([2]; 1.0% detergent, 5 min): 3.98 rlu
Average Relative Light Unit Values ([2]; 1.0% detergent, 75 min): 3.63 rlu
Average Relative Light Unit Values ([2]; 1.0% detergent, 169 min): 3.63 rlu
Average Relative Light Unit Values ([2]; 1.0% detergent, 222 min): 3.15 rlu
Average Relative Light Unit Values ([2]; 1.0% detergent, 260 min): 3.24 rlu
Average Relative Light Unit Values [2, 3]: 5962.61 rlu
Percent ATP Remaining [2, 3]: 100.00%
Average Relative Light Unit Values [2, 4]: 1694.47 rlu
Percent ATP Remaining [2, 4]: 28.42%
Average Relative Light Unit Values [2, 5]: 368.11 rlu
Percent ATP Remaining [2, 5]: 6.17%
Average Relative Light Unit Values [2, 6]: 241.05 rlu
Percent ATP Remaining [2, 6]: 4.04%
Average Relative Light Unit Values [2, 7]: 135.25 rlu
Percent ATP Remaining [2, 7]: 2.27%
times more ATP present in the sample after four hours when the detergent was present than when it was absent ([2]; SDS 0.05%, deoxycholate 0.5% and 0.1%): about three to about twenty
concentrations which resulted in a 25% or greater decrease in the relative ATPase activity ([2]; compared to reactions in the absence of detergent): ≥ 0.1%
